Reference: patent US9156796B2, “Benzoimidazole-carboxylic acid amide derivatives as APJ receptor modulators” (SANOFI, priority 2013, dated 2015)

Target: T1, human apelin receptor (Homo sapiens, UniProt P35414)
T1 construct: expressed in transfected cells
T1 sequence (P35414 1-380): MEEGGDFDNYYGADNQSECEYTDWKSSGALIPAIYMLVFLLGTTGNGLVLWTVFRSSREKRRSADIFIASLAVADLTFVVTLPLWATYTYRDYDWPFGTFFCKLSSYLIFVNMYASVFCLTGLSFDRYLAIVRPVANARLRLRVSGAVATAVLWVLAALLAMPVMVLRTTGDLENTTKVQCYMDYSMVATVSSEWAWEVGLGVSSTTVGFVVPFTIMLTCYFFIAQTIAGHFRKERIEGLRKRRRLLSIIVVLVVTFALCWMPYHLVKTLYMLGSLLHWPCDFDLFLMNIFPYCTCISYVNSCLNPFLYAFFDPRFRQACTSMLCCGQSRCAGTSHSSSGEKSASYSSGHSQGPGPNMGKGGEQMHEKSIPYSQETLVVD
Assay: Determination of agonism on the human apelin receptor by a calcium fluorescence assay (FLIPR)
Type: cell-based
Details: HEK293 cells stably transfected with human apelin receptor and Giaq protein, Fluo-4 calcium fluorescence, read-out: EC50 (APJ agonism)
How it was run: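 HEK293 cells stably co-expressing human apelin receptor and promiscuous Giaq, loaded 1 h at 37 °C with Fluo-4 (4 μM) in probenecid-containing Hepes buffer, pH 7.4. Compounds, at least 7 concentrations in triplicate, added in FLIPR Tetra; peak calcium fluorescence normalized to 1 μM apelin-13 as 100% to derive EC50.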

With CCC(CC)n1c(Cc2cccs2)nc2cc(C(=O)N[C@@H](CC(C)C)CS(=O)(=O)NC)ccc21 [Example 485, 1-(1-Ethyl-propyl)-2-thiophen-2-ylmethyl-1H-benzoimidazole-5-carboxylic acid ((S)-3-methyl-1-methylsulfamoylmethyl-butyl)-amide] as the compound, how does the EC50 read?
The EC50 was 0.813 µM.

How did the EC50 turn out when CC(C)C[C@@H](CC(=O)O)NC(=O)c1ccc2c(c1)nc(Cc1ccco1)n2C1CCCCC1C (single isomer, unassigned) [Example 432] was run?
The EC50 was 0.032 µM.

For CCC(CC)n1c(Cc2cccs2)nc2cc(C(=O)N[C@@H](CC(C)C)C(=O)N[C@H]3C[C@H]4CC[C@@H](C3)N4C)ccc21 [Example 276, 1-(1-Ethyl-propyl)-2-thiophen-2-ylmethyl-1H-benzoimidazole-5-carboxylic acid [(S)-3-methyl-1-((3R)-8-methyl-8-aza-bicyclo[3.2.1]oct-3-ylcarbamoyl)-butyl]-amide], which EC50 is on record?
Its EC50 is 0.105 µM.

How did the EC50 turn out when CCCC(CC(=O)O)NC(=O)c1ccc2c(c1)nc(Cc1cccs1)n2[C@@H]1CCCC[C@H]1C (single isomer, unassigned) [Example 458] was run?
The EC50 was 0.124 µM.

CCC[C@@H](CO)NC(=O)c1ccc2c(c1)nc(CC1CCCC1)n2C(CC)CC [Example 186, 2-Cyclopentylmethyl-1-(1-ethyl-propyl)-1H-benzoimidazole-5-carboxylic acid ((S)-1-hydroxymethyl-butyl)-amide] was tested. Which EC50 did it give?
The EC50 was 4.67 µM.

For CC(C)C[C@H](NC(=O)c1ccc2c(c1)nc(CC1CCCC1)n2C1CCCCC1)C(=O)O [Example 112, (S)-2-[(1-Cyclohexyl-2-cyclopentylmethyl-1H-benzoimidazole-5-carbonyl)-amino]-4-methyl-pentanoic acid], which EC50 is on record?
The EC50 was 12.8 µM.

How did the EC50 turn out when CCC(CC)n1c(CC2CCCC2)nc2cc(C(=O)NC3(CO)CCCC3)ccc21 [Example 179, 2-Cyclopentylmethyl-1-(1-ethyl-propyl)-1H-benzoimidazole-5-carboxylic acid (1-hydroxymethyl-cyclopentyl)-amide] was run?
The EC50 was 25.2 µM.

With CCC(CC)n1c(Cc2cccs2)nc2cc(C(=O)NC3(C(=O)O)CCCC3)ccc21 [Example 6, 1-{[1-(1-Ethyl-propyl)-2-thiophen-2-ylmethyl-1H-benzoimidazole-5-carbonyl]-amino}-cyclopentanecarboxylic acid] as the compound, how does the EC50 read?
Its EC50 is 3.82 µM.

C[C@@H]1CCCC[C@H]1n1c(Cc2cccs2)nc2cc(C(=O)NC(CCC(F)(F)F)C(=O)O)ccc21 (stereo partly drawn) [Example 27, 5,5,5-Trifluoro-2-{[1-((1R,2R)-2-methyl-cyclohexyl)-2-thiophen-2-ylmethyl-1H-benzoimidazole-5-carbonyl]-amino}-pentanoic acid] was tested. Which EC50 did it give?
Its EC50 is 1.86 µM.

For CCC(CC)n1c(Cc2cscn2)nc2cc(C(=O)N[C@H](CC(=O)O)CC(C)C)ccc21 [Example 98, (S)-3-{[1-(1-Ethyl-propyl)-2-thiazol-4-ylmethyl-1H-benzoimidazole-5-carbonyl]-amino}-5-methyl-hexanoic acid], which EC50 is on record?
Its EC50 is 2.19 µM.

How did the EC50 turn out when CCC(CC)n1c(Cc2cccs2)nc2cc(C(=O)N[C@@H](CC(C)C)C(=O)NCc3ccc(N(C)C)cc3)ccc21 [Example 266, 1-(1-Ethyl-propyl)-2-thiophen-2-ylmethyl-1H-benzoimidazole-5-carboxylic acid [(S)-1-(4-dimethylamino-benzylcarbamoyl)-3-methyl-butyl]-amide] was run?
Its EC50 is 2.72 µM.

With CCC(CC)n1c(Cc2cccs2)nc2cc(C(=O)N[C@@H](CC(C)C)C(=O)NCCN3CCOCC3)ccc21 [Example 231, 1-(1-Ethyl-propyl)-2-thiophen-2-ylmethyl-1H-benzoimidazole-5-carboxylic acid [(S)-3-methyl-1-(2-morpholin-4-yl-ethylcarbamoyl)-butyl]-amide] as the compound, how does the EC50 read?
Its EC50 is 0.525 µM.

CC(C)C[C@@H](CC(=O)O)NC(=O)c1ccc2c(c1)nc(Cc1cccs1)n2CC1CCCCC1 [Example 97, (S)-3-[(1-Cyclohexylmethyl-2-thiophen-2-ylmethyl-1H-benzoimidazole-5-carbonyl)-amino]-5-methyl-hexanoic acid] was tested. Which EC50 did it give?
The EC50 was 39 µM.

With C[C@@H]1CCCC[C@H]1n1c(Cc2cccs2)nc2cc(C(=O)NC(CC3CCCCCC3)C(=O)O)ccc21 (single isomer, unassigned) [Example 450] as the compound, how does the EC50 read?
Its EC50 is 0.72 µM.

CCC(C)Cn1c(CC2CCCCC2)nc2cc(C(=O)N[C@@H](CC(C)C)C(=O)O)ccc21 (stereo partly drawn) [Example 135, (S)-2-{[2-Cyclohexylmethyl-1-(2-methyl-butyl)-1H-benzoimidazole-5-carbonyl]-amino}-4-methyl-pentanoic acid] was tested. Which EC50 did it give?
The EC50 was 3.8 µM.

CCC[C@H](CO)NC(=O)c1ccc2c(c1)nc(CC1CCCC1)n2C(CC)CC [Example 185, 2-Cyclopentylmethyl-1-(1-ethyl-propyl)-1H-benzoimidazole-5-carboxylic acid ((R)-1-hydroxymethyl-butyl)-amide] was tested. Which EC50 did it give?
The EC50 was 14.1 µM.

CCCC(CCO)NC(=O)c1ccc2c(c1)nc(Cc1cccs1)n2C(CC)CC (single isomer, unassigned) [Example 470] was tested. Which EC50 did it give?
Its EC50 is 0.235 µM.

How did the EC50 turn out when CC(C)C[C@@H](CC(=O)O)NC(=O)c1ccc2c(c1)nc(Cc1ccco1)n2C1CCCCC1C (single isomer, unassigned) [Example 433] was run?
The EC50 was 1.72 µM.

How did the EC50 turn out when CCC(CC)n1c(Cc2cccs2)nc2cc(C(=O)NC(CC(C)(C)C)C(=O)O)ccc21 (centres unmarked) [Example 126, 2-{[1-(1-Ethyl-propyl)-2-thiophen-2-ylmethyl-1H-benzoimidazole-5-carbonyl]-amino}-4,4-dimethyl-pentanoic acid] was run?
The EC50 was 3.93 µM.

CC(C)C[C@H](NC(=O)c1ccc2c(c1)nc(CC1CCCC1)n2C1CCCCC1C)C(=O)O (stereo partly drawn) [Example 150, (S)-2-{[2-Cyclopentylmethyl-1-(2-methyl-cyclohexyl)-1H-benzoimidazole-5-carbonyl]-amino}-4-methyl-pentanoic acid] was tested. Which EC50 did it give?
Its EC50 is 2.8 µM.

CCC(CC)n1c(Cc2cccs2)nc2cc(C(=O)N[C@@H](CC(C)C)C(=O)N3CC(C)OC(C)C3)ccc21 (stereo partly drawn) [Example 229, 1-(1-Ethyl-propyl)-2-thiophen-2-ylmethyl-1H-benzoimidazole-5-carboxylic acid [(S)-1-(2,6-dimethyl-morpholine-4-carbonyl)-3-methyl-butyl]-amide] was tested. Which EC50 did it give?
The EC50 was 1.94 µM.

How did the EC50 turn out when CCC(CC)n1c(Cc2cccs2)nc2cc(C(=O)N[C@@H](CC(C)C)C(=O)N3CC[C@H](OCc4ccccc4)C3)ccc21 [Example 390, 1-(1-Ethyl-propyl)-2-thiophen-2-ylmethyl-1H-benzoimidazole-5-carboxylic acid [(S)-1-((S)-3-benzyloxy-pyrrolidine-1-carbonyl)-3-methyl-butyl]-amide] was run?
Its EC50 is 10.9 µM.

CCC(CC)n1c(Cc2cccs2)nc2cc(C(=O)N[C@@H](CC(C)C)C(=O)NCC3CCN(CCc4ccccc4)C3)ccc21 (stereo partly drawn) [Example 291, 1-(1-Ethyl-propyl)-2-thiophen-2-ylmethyl-1H-benzoimidazole-5-carboxylic acid {(S)-3-methyl-1-[(1-phenethyl-pyrrolidin-3-ylmethyl)-carbamoyl]-butyl}-amide] was tested. Which EC50 did it give?
The EC50 was 0.408 µM.

CCC(CC)n1c(Cc2ccco2)nc2cc(C(=O)NC(CC(=O)O)c3ccccc3)ccc21 (centres unmarked) [Example 42, 3-{[1-(1-Ethyl-propyl)-2-furan-2-ylmethyl-1H-benzoimidazole-5-carbonyl]-amino}-3-phenyl-propionic acid] was tested. Which EC50 did it give?
Its EC50 is 1.1 µM.

With CCC(CC)n1c(Cc2cccs2)nc2cc(C(=O)NC(CCC(F)(F)F)C(=O)O)ccc21 (centres unmarked) [Example 26, 2-{[1-(1-Ethyl-propyl)-2-thiophen-2-ylmethyl-1H-benzoimidazole-5-carbonyl]-amino}-5,5,5-trifluoro-pentanoic acid] as the compound, how does the EC50 read?
Its EC50 is 5.3 µM.

CCC(CC)n1c(Cc2cccs2)nc2cc(C(=O)NC(CC(C)C)C(C)(C)C(=O)O)ccc21 (single isomer, unassigned) [Example 464] was tested. Which EC50 did it give?
Its EC50 is 0.126 µM.

With CC(C)C[C@H](NC(=O)c1ccc2c(c1)nc(Cc1cccs1)n2C1CCCC1C)C(=O)O (single isomer, unassigned) [Example 428] as the compound, how does the EC50 read?
Its EC50 is 0.266 µM.

Which EC50 does the source give for CCC(CC)n1c(CC2CCCC2)nc2cc(C(=O)N[C@H](CO)[C@@H](C)CC)ccc21 [Example 180, 2-Cyclopentylmethyl-1-(1-ethyl-propyl)-1H-benzoimidazole-5-carboxylic acid ((1S,2S)-1-hydroxymethyl-2-methyl-butyl)-amide] here?
Its EC50 is 6.17 µM.

How did the EC50 turn out when CCCC[C@H](NC(=O)c1ccc2c(c1)nc(Cc1cccs1)n2C1CCCCC1C)C(=O)O (stereo partly drawn) [Example 16, (S)-2-{[1-(2-Methyl-cyclohexyl)-2-thiophen-2-ylmethyl-1H-benzoimidazole-5-carbonyl]-amino}-hexanoic acid] was run?
The EC50 was 0.117 µM.

With CCC(CC)n1c(Cc2cccs2)nc2cc(C(=O)NC3(C(=O)O)CCC(C)CC3)ccc21 (centres unmarked) [Example 34, 1-{[1-(1-Ethyl-propyl)-2-thiophen-2-ylmethyl-1H-benzoimidazole-5-carbonyl]-amino}-4-methyl-cyclohexanecarboxylic acid] as the compound, how does the EC50 read?
Its EC50 is 0.489 µM.

With CCC(CC)n1c(Cc2cccs2)nc2cc(C(=O)N[C@@H](CCSC)C(=O)O)ccc21 [Example 123, (S)-2-{[1-(1-Ethyl-propyl)-2-thiophen-2-ylmethyl-1H-benzoimidazole-5-carbonyl]-amino}-4-methylsulfanyl-butyric acid] as the compound, how does the EC50 read?
The EC50 was 1.88 µM.

With CCC(CC)n1c(Cc2cccs2)nc2cc(C(=O)N[C@@H](CC(C)C)C(=O)NCCCN3CCOCC3)ccc21 [Example 234, 1-(1-Ethyl-propyl)-2-thiophen-2-ylmethyl-1H-benzoimidazole-5-carboxylic acid [(S)-3-methyl-1-(3-morpholin-4-yl-propylcarbamoyl)-butyl]-amide] as the compound, how does the EC50 read?
Its EC50 is 0.344 µM.
